Data reported in patent publication US11020398B2, “Amino-pyrrolopyrimidinone compounds and methods of use thereof” (ArQule, Inc., priority 2016, dated 2021).

Experiments:
[1] = target: full-length activated BTK (wildtype) (Homo sapiens (Human), UniProt Q06187); assay: AlphaScreen assay, wild-type BTK; format: biochemical; details: for inhibition at 10 µM: read-out: BTK % @ 10 uM, @ 10 uM
Procedure: (§1) The activated BTK was frozen in 50 μl aliquots (125-150 μg/ml).
(§2) BTK activity was assayed using a PLCγ2-derived biotinylated peptide substrate (biotin-[…]-OH) and AlphaScreen™ (Amplified Luminescent Proximity Homogeneous Assay) technology. The extent of peptide phosphorylation was determined by using acceptor beads conjugated to phosphotyrosine antibody that recognized the phosphorylated peptide and donor beads conjugated to streptavidin that binds to the biotin on the peptide. Excitation of the donor beads converted ambient oxygen to excited singlet oxygen which when in close proximity to acceptor beads, reacted with acceptor beads resulting in signal amplification.
(§3) Test inhibitors and controls were prepared in 10% DMSO at 10-fold the desired final concentration and added to each well of a reaction plate (Corning 96-well half-area solid white nonbinding surface plate) in a volume of 2.5 μl. […] The plate was incubated for 120 min at room temperature and the reaction stopped by the addition of 10 μl stop/detection mixture containing 35 mM EDTA, 50 ug/ml AlphaScreen™ Streptavidin Donor beads (final concentration is 500 ng/well) and AlphaScreen™ Phospho-tyrosine (P-Tyr-100) Acceptor beads (final concentration is 500 ng/well) under green light conditions. The plate was incubated overnight at room temperature in the dark and the plates read on the BMG PolarStar Omega ([…], Gain=4000). Data were archived and analyzed with a 4-parameter fit to generate IC50 values using the CDD Vault from Collaborative Drug Discovery.

[2] = target: full-length activated BTK mutant C481S (Homo sapiens (Human), UniProt Q06187, C481S); assay: AlphaScreen assay, BTK mutant C481S; format: biochemical; details: for inhibition at 10 µM: read-out: BTK-C481S % @ 10 uM, @ 10 uM
Procedure: as §1, §2, §3

full-length activated BTK mutant C481S, sequence (Q06187 whole entry C481S): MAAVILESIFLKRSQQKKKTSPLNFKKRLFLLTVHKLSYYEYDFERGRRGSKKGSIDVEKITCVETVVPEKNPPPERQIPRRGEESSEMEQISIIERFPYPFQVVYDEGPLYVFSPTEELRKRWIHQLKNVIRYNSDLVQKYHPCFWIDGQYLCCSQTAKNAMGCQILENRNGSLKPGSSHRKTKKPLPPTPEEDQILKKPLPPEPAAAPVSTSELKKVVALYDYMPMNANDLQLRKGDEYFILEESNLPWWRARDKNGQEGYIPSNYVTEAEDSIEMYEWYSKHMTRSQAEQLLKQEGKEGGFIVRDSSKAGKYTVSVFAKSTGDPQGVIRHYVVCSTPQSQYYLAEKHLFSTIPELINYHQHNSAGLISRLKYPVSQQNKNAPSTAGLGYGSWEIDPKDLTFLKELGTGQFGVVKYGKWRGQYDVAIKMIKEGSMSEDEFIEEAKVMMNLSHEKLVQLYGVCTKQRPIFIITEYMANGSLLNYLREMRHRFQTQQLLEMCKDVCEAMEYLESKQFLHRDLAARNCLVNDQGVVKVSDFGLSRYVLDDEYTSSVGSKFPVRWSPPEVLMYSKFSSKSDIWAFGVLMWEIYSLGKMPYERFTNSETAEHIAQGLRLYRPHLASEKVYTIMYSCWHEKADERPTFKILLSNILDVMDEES
full-length activated BTK (wildtype), sequence (Q06187 whole entry): as the sequence (Q06187 whole entry C481S) above, with S481C counted along it

Row | Compound | IC50 [1] [nM] | IC50 [2] [nM] | inhibition at 10 µM [1] [%] | inhibition at 10 µM [2] [%]
1 | O=C(c1cc(C(=O)N2CCc3ccccc3C2)ccc1Cl)c1c[nH]c2ncnc(N[C@@H]3CC[C@@H](CO)OC3)c12 [Compound I-625, (4-chloro-3-(4-(((3R,6S)-6-(hydroxymethyl)tetrahydro-2H-pyran-3-yl)amino)-7H-pyrrolo[2,3-d]pyrimidine-5-carbonyl)phenyl)(3,4-dihydroisoquinolin-2(1H)-yl)methanone] | 110 | 170 |  | 
2 | O=C(c1ccc(C(=O)N2CCCCC2)cc1Cl)c1c[nH]c2ncnc(N[C@@H]3CC[C@@H](CO)OC3)c12 [Compound I-617, (3-chloro-4-(4-(((3R,6S)-6-(hydroxymethyl)tetrahydro-2H-pyran-3-yl)amino)-7H-pyrrolo[2,3-d]pyrimidine-5-carbonyl)phenyl)(piperidin-1-yl)methanone] | 16.2 | 48.7 |  | 
3 | Cn1cc(NC(=O)c2cccc(C(=O)c3c[nH]c4ncnc(N[C@@H]5CC[C@@H](CO)OC5)c34)c2)cn1 [Compound I-638, 3-(4-(((3R,6S)-6-(hydroxymethyl)tetrahydro-2H-pyran-3-yl)amino)-7H-pyrrolo[2,3-d]pyrimidine-5-carbonyl)-N-(1-methyl-1H-pyrazol-4-yl)benzamide] |  |  | 63 | 54
4 | N#Cc1cccc(NC(=O)c2ccc(Cl)c(C(=O)c3c[nH]c4ncnc(N[C@@H]5CC[C@@H](CO)OC5)c34)c2)c1 [Compound I-630, 4-chloro-N-(3-cyanophenyl)-3-(4-(((3R,6S)-6-(hydroxymethyl)tetrahydro-2H-pyran-3-yl)amino)-7H-pyrrolo[2,3-d]pyrimidine-5-carbonyl)benzamide] | 18.4 | 189 |  | 
5 | O=C(Nc1cccnc1)c1ccc(C(=O)c2c[nH]c3ncnc(N[C@@H]4CC[C@@H](CO)OC4)c23)c(Cl)c1 [Compound I-256, 3-chloro-4-(4-(((3R,6S)-6-(hydroxymethyl)tetrahydro-2H-pyran-3-yl)amino)-7H-pyrrolo[2,3-d]pyrimidine-5-carbonyl)-N-(pyridin-3-yl)benzamide] | 156 | 317 |  | 
6 | COCCOc1ccc(C(=O)c2c[nH]c3ncnc(N[C@@H]4CC[C@@H](CO)OC4)c23)c(Cl)c1 [Compound I-317i, (2-chloro-4-(2-methoxyethoxy)phenyl)(4-(((3R,6S)-6-(hydroxymethyl)tetrahydro-2H-pyran-3-yl)amino)-7H-pyrrolo[2,3-d]pyrimidin-5-yl)methanone] | 40.7 | 156 |  | 
7 | O=C(Nc1ccc(Cl)c(C(=O)c2c[nH]c3ncnc(N[C@@H]4CC[C@@H](CO)OC4)c23)c1)c1ccccc1 [Compound I-601, N-(4-chloro-3-(4-(((3R,6S)-6-(hydroxymethyl)tetrahydro-2H-pyran-3-yl)amino)-7H-pyrrolo[2,3-d]pyrimidine-5-carbonyl)phenyl)benzamide] | 20.9 | 116 |  | 
8 | O=C(Nc1ccc(C(=O)c2c[nH]c3ncnc(N[C@@H]4CC[C@@H](CO)OC4)c23)c(Cl)c1)c1ccccc1 [Compound I-276, N-(3-chloro-4-(4-(((3R,6S)-6-(hydroxymethyl)tetrahydro-2H-pyran-3-yl)amino)-7H-pyrrolo[2,3-d]pyrimidine-5-carbonyl)phenyl)benzamide] | 17.6 | 58 |  | 
9 | COCC(=O)Nc1cccc(C(=O)c2c[nH]c3ncnc(N[C@@H]4CC[C@@H](CO)OC4)c23)c1 [Compound I-645, N-(3-(4-(((3R,6S)-6-(hydroxymethyl)tetrahydro-2H-pyran-3-yl)amino)-7H-pyrrolo[2,3-d]pyrimidine-5-carbonyl)phenyl)-2-methoxyacetamide] | 743 |  |  | 81
10 | O=C(c1ccc(N2CCCCC2)cc1Cl)c1c[nH]c2ncnc(N[C@@H]3CC[C@@H](CO)OC3)c12 [Compound I-646, (2-chloro-4-(piperidin-1-yl)phenyl)(4-(((3R,6S)-6-(hydroxymethyl)tetrahydro-2H-pyran-3-yl)amino)-7H-pyrrolo[2,3-d]pyrimidin-5-yl)methanone] | 380 | 781 |  | 
11 | CNC(=O)c1cccc(Oc2ccc(C(=O)c3c[nH]c4ncnc(N[C@@H]5CC[C@@H](CO)OC5)c34)cc2)n1 [Compound I-320, 6-(4-(4-(((3R,6S)-6-(hydroxymethyl)tetrahydro-2H-pyran-3-yl)amino)-7H-pyrrolo[2,3-d]pyrimidine-5-carbonyl)phenoxy)-N-methylpicolinamide] | 336 | 63.1 |  | 
12 | O=C(Cc1ccccc1)Nc1ccc(C(=O)c2c[nH]c3ncnc(N[C@@H]4CC[C@@H](CO)OC4)c23)c(Cl)c1 [Compound I-639, N-(3-chloro-4-(4-(((3R,6S)-6-(hydroxymethyl)tetrahydro-2H-pyran-3-yl)amino)-7H-pyrrolo[2,3-d]pyrimidine-5-carbonyl)phenyl)-2-phenylacetamide] | 14.2 | 25.6 |  | 
13 | O=C(Nc1cccc(C(=O)c2c[nH]c3ncnc(N[C@@H]4CC[C@@H](CO)OC4)c23)c1)c1ccccc1 [Compound I-642, N-(3-(4-(((3R,6S)-6-(hydroxymethyl)tetrahydro-2H-pyran-3-yl)amino)-7H-pyrrolo[2,3-d]pyrimidine-5-carbonyl)phenyl)benzamide] | 251 | 203 |  | 
14 | O=C(NCc1ccccc1)c1ccc(Cl)c(C(=O)c2c[nH]c3ncnc(N[C@@H]4CC[C@@H](CO)OC4)c23)c1 [Compound I-628, N-benzyl-4-chloro-3-(4-(((3R,6S)-6-(hydroxymethyl)tetrahydro-2H-pyran-3-yl)amino)-7H-pyrrolo[2,3-d]pyrimidine-5-carbonyl)benzamide] | 59.7 | 161 |  | 
15 | O=C(c1cccc(NC(=O)C2CCOCC2)c1)c1c[nH]c2ncnc(N[C@@H]3CC[C@@H](CO)OC3)c12 [Compound I-644, N-(3-(4-(((3R,6S)-6-(hydroxymethyl)tetrahydro-2H-pyran-3-yl)amino)-7H-pyrrolo[2,3-d]pyrimidine-5-carbonyl)phenyl)tetrahydro-2H-pyran-4-carboxamide] |  |  | 58 | 44

Results, then the molecule that gave them:

Row | IC50 [1] [nM] | IC50 [2] [nM] | inhibition at 10 µM [1] [%] | inhibition at 10 µM [2] [%] | Compound
16 | 4.5 | 179 |  |  | C=CC(=O)N1CCCC(Nc2ncnc3[nH]cc(C(=O)c4ccc(Oc5ccccc5)cc4Cl)c23)C1 (racemic) [Compound I-321r, (racemic)-1-(3-((5-(2-chloro-4-phenoxybenzoyl)-7H-pyrrolo[2,3-d]pyrimidin-4-yl)amino)piperidin-1-yl)prop-2-en-1-one]
17 | 6.55 | 20.7 |  |  | CC(=O)N1CC(Nc2ncnc3[nH]cc(C(=O)c4ccc(Oc5ccccc5)cc4Cl)c23)CCC1CO (racemic) [Compound I-654, rac-1-(5-((5-(2-chloro-4-phenoxybenzoyl)-7H-pyrrolo[2,3-d]pyrimidin-4-yl)amino)-2-(hydroxymethyl)-piperidin-1-yl)ethan-1-one]
18 | 14.2 | 33.4 |  |  | CN1C[C@H](Nc2ncnc3[nH]cc(C(=O)c4ccc(Oc5ccccc5)cc4Cl)c23)C[C@H]1CO [Compound I-342e, (2-chloro-4-phenoxyphenyl)(4-(((3R,5S)-5-(hydroxymethyl)-1-methylpyrrolidin-3-yl)amino)-7H-pyrrolo[2,3-d]pyrimidin-5-yl)methanone]
19 | 0.98 | 136 |  |  | C=CC(=O)N1CCCC1CNc1ncnc2[nH]cc(C(=O)c3ccc(Oc4ccccc4)cc3Cl)c12 (racemic) [Compound I-325r, (racemic)-1-(2-(((5-(2-chloro-4-phenoxybenzoyl)-7H-pyrrolo[2,3-d]pyrimidin-4-yl)amino)methyl)pyrrolidin-1-yl)prop-2-en-1-one]
20 | 29.4 | 124 |  |  | O=C(c1ccc(Oc2ccccc2)cc1Cl)c1c[nH]c2ncnc(NC[C@H]3CCC[C@@H](CO)N3)c12 (racemic) [Compound I-359e, racemic-cis-(2-chloro-4-phenoxyphenyl)(4-(((6-(hydroxymethyl)piperidin-2-yl)methyl)amino)-7H-pyrrolo[2,3-d]pyrimidin-5-yl)methanone]
21 | 0.98 | 18.4 |  |  | CC#CC(=O)N1CCCC1CNc1ncnc2[nH]cc(C(=O)c3ccc(Oc4ccccc4)cc3Cl)c12 (racemic) [Compound I-328r, (racemic)-1-(2-(((5-(2-chloro-4-phenoxybenzoyl)-7H-pyrrolo[2,3-d]pyrimidin-4-yl)amino)methyl)pyrrolidin-1-yl)but-2-yn-1-one]
22 | 10.4 | 98.6 |  |  | C=CS(=O)(=O)N1CCCC(Nc2ncnc3[nH]cc(C(=O)c4ccc(Oc5ccccc5)cc4Cl)c23)C1 (racemic) [Compound I-322r, (racemic)-(2-chloro-4-phenoxyphenyl)(4-((1-(vinylsulfonyl)piperidin-3-yl)amino)-7H-pyrrolo[2,3-d]pyrimidin-5-yl)methanone]
23 | 10.1 | 68.2 |  |  | O=C(c1ccc(Oc2ccccc2)cc1Cl)c1c[nH]c2ncnc(N[C@H]3CN[C@H](CO)C3)c12 [Compound I-345e, (2-chloro-4-phenoxyphenyl)(4-(((3R,5S)-5-(hydroxymethyl)pyrrolidin-3-yl)amino)-7H-pyrrolo[2,3-d]pyrimidin-5-yl)methanone]
